Assay results as given in patent US12527886B2, “Radiopharmaceuticals and composition for thrombus imaging” (THE ASAN FOUNDATION, priority 2020, dated 2026).

Assay: Stability of Tc-99m labeled compound by radioTLC
Format: physicochemical
Conditions: for Eluent A / Eluent B: in % (unit assumed)
Method: (§1) After 2.0 mg of GP-104 was dissolved in 1.8 mL of water for injection and 0.2 mL of ethanol, the resulting solution was allowed to stand with a pH of about 5 at room temperature for 10 minutes when 20 μL of SnCl2 (15 mg/mL) and 2 mL of Tc-99m were added thereto, and the reaction was terminated by adjusting the pH to 7 using a NaOH solution. Stability up to 4 hours was confirmed by radioTLC under conditions of pH 5 and pH 7, respectively, and the results are summarized in the following Table 1. (TLC analysis conditions: iTLC was used, Eluent A: methyl ethyl ketone 100%, Eluent B: pyridine:acetic acid:purified water=3:5:15, and purity calculation: Eluent A−Eluent B)
as §1, with “ethanol, pH was adjusted to about 5 and” for “ethanol,”, “stand” for “stand with a pH of about 5”, “(15 mg/mL), 20 μL of cysteine (10” for “(15”, “Table 2.” for “Table 1.”
(§2) After 2.0 mg of GP-105 was dissolved in 1.8 mL of water for injection and 0.2 mL of ethanol, the pH was adjusted to about 5 and the resulting solution was allowed to stand at room temperature for 10 minutes when 20 μL of SnCl2 (15 mg/mL) and 2 mL of Tc-99m were added thereto, and the reaction was terminated by adjusting the pH to 7 using a NaOH solution. Stability until 4 hours under conditions of pH 5 and pH 7 was each confirmed by radioTLC. (TLC analysis conditions: iTLC was used, Eluent A: methyl ethyl ketone 100%, Eluent B: pyridine:acetic acid:purified water=3:5:15, and purity calculation: Eluent A−Eluent B)
as §2, with “ethanol,” for “ethanol, the”, “(15 mg/mL), 20 μL of cysteine (10” for “(15”

[1] = Ex 4-1, no cysteine, pH 5, 0 hour
[2] = Ex 4-1, no cysteine, pH 5, 0.5 hours
[3] = Ex 4-1, no cysteine, pH 5, 1.0 hour
[4] = Ex 4-1, no cysteine, pH 5, 1.5 hours
[5] = Ex 4-1, no cysteine, pH 5, 2.0 hours
[6] = Ex 4-1, no cysteine, pH 5, 3.0 hours
[7] = Ex 4-1, no cysteine, pH 5, 4.0 hours
[8] = Ex 4-1, no cysteine, pH 7, 0 hour
[9] = Ex 4-1, no cysteine, pH 7, 0.5 hours
[10] = Ex 4-1, no cysteine, pH 7, 1.0 hour
[11] = Ex 4-1, no cysteine, pH 7, 1.5 hours
[12] = Ex 4-1, no cysteine, pH 7, 2.0 hours
[13] = Ex 4-1, no cysteine, pH 7, 3.0 hours
[14] = Ex 4-1, no cysteine, pH 7, 4.0 hours
[15] = Ex 4-2, cysteine, pH 5, 0.5 hours
[16] = Ex 4-2, cysteine, pH 5, 1.0 hour
[17] = Ex 4-2, cysteine, pH 5, 1.5 hours
[18] = Ex 4-2, cysteine, pH 5, 2.0 hours
[19] = Ex 4-2, cysteine, pH 5, 3.0 hours
[20] = Ex 4-2, cysteine, pH 5, 4.0 hours
[21] = Ex 4-2, cysteine, pH 7, 0.5 hours
[22] = Ex 4-2, cysteine, pH 7, 1.0 hour
[23] = Ex 4-2, cysteine, pH 7, 1.5 hours
[24] = Ex 4-2, cysteine, pH 7, 2.0 hours
[25] = Ex 4-2, cysteine, pH 7, 3.0 hours
[26] = Ex 4-2, cysteine, pH 7, 4.0 hours

O=C(O)C[C@H](NC(=O)[C@@H]1CCCN(C(=O)CCC2CCNCC2)C1)c1cncc(OCCNC(=O)CN2CC(=O)[O][99Tc-]3([O]C(=O)C2)[O]C(=O)CN(CC(=O)NCCOc2cncc([C@H](CC(=O)O)NC(=O)[C@@H]4CCCN(C(=O)CCC5CCNCC5)C4)c2)CC(=O)[O]3)c1 [[Tc-99m]GP-105]
Purity [1]: 82.93%
Eluent A [1]: 100
Eluent B [1]: 17.07
Purity [2]: 72.53%
Eluent A [2]: 95.67
Eluent B [2]: 23.14
Purity [3]: 73.13%
Eluent A [3]: 97.07
Eluent B [3]: 23.94
Purity [4]: 71.23%
Eluent A [4]: 94.54
Eluent B [4]: 23.31
Purity [5]: 60.81%
Eluent A [5]: 93.25
Eluent B [5]: 32.44
Purity [6]: 60.99%
Eluent A [6]: 80.67
Eluent B [6]: 19.68
Purity [7]: 57.11%
Eluent A [7]: 82.64
Eluent B [7]: 25.53
Purity [8]: 82.93%
Eluent A [8]: 100
Eluent B [8]: 17.07
Purity [9]: 65.63%
Eluent A [9]: 90.76
Eluent B [9]: 25.13
Purity [10]: 60.37%
Eluent A [10]: 85.38
Eluent B [10]: 25.01
Purity [11]: 58.73%
Eluent A [11]: 95.97
Eluent B [11]: 37.24
Purity [12]: 54.3%
Eluent A [12]: 96.17
Eluent B [12]: 41.87
Purity [13]: 54.12%
Eluent A [13]: 94
Eluent B [13]: 39.88
Purity [14]: 40.17%
Eluent A [14]: 85.5
Eluent B [14]: 45.33
Purity (Ex 4-2, cysteine, pH 5, 0 hour): 82.93%
Eluent A (Ex 4-2, cysteine, pH 5, 0 hour): 100
Eluent B (Ex 4-2, cysteine, pH 5, 0 hour): 17.07
Purity [15]: 92.37%
Eluent A [15]: 100
Eluent B [15]: 7.63
Purity [16]: 76.25%
Eluent A [16]: 89.07
Eluent B [16]: 12.82
Purity [17]: 87.74%
Eluent A [17]: 100
Eluent B [17]: 12.26
Purity [18]: 38.64%
Eluent A [18]: 57.3
Eluent B [18]: 18.66
Purity [19]: 77.6%
Eluent A [19]: 97.4
Eluent B [19]: 19.8
Purity [20]: 76.51%
Eluent A [20]: 98.31
Eluent B [20]: 21.8
Purity (Ex 4-2, cysteine, pH 7, 0 hour): 90.38%
Eluent A (Ex 4-2, cysteine, pH 7, 0 hour): 100
Eluent B (Ex 4-2, cysteine, pH 7, 0 hour): 9.62
Purity [21]: 92.28%
Eluent A [21]: 98.65
Eluent B [21]: 6.37
Purity [22]: 85.19%
Eluent A [22]: 98.4
Eluent B [22]: 13.21
Purity [23]: 91.63%
Eluent A [23]: 97.22
Eluent B [23]: 5.59
Purity [24]: 89.39%
Eluent A [24]: 95.62
Eluent B [24]: 6.23
Purity [25]: 90.09%
Eluent A [25]: 100
Eluent B [25]: 9.91
Purity [26]: 96.79%
Eluent A [26]: 100
Eluent B [26]: 3.21
Purity (addition of cysteine, pH of 5 (Table 8)): ≥ 70%
Purity (addition of cysteine, pH of 7 (Table 8)): ≥ 90%
maximum purity (no cysteine, pH 5 and pH 7 (text to Table 7)): 82.93%
